System: production of nitric oxide (NO) by murine macrophages (RAW 264.7 cell line) activated by lipopolysaccharide (LPS)
Experiment: Nitric oxide (NO) release by LPS-activated RAW 264.7 macrophages, Griess Reagent System
Assay type: cell-based
Description: In addition, positive control cells were treated with 20 μM dexamethasone.

Row | SMILES | NO inhibition by p-cymene alone (p-cymene only 0.1%, 0.25%, 0.5%, 0.75% solutions, final dilution 1:200,000) | NO inhibition by carvacrol alone (carvacrol only 0.05%, 0.1%, 0.15% solutions, dilutions 1:500,000, 1:200,000, 1:100,000)
1 | Cc1ccc(C(C)C)cc1 [p-cymene] | None of the p-cymene-only dilutions caused any NO inhibition | 
2 | Cc1ccc(C(C)C)cc1O [carvacrol] |  | None of the carvacrol-only dilutions caused any NO inhibition

— patent US11883455B2, “Nigella sativa oil composition” (N.S. OILS LTD., priority 2018, dated 2024)
